Source: PubChem BioAssay AID1963835 (Molecular Pharmacology Branch, DTP, NCI, 2024)

System: 699152-130-R-J1-PDC complex spheroid viability
Test: Anticancer human tumor 699152-130-R-J1-PDC patient-derived pancreatic carcinoma cell line growth inhibition [POLQ]
Conditions: for IC50: curve of first compound; for viability, T/C: stronger effect = lower value
Procedure, shortened: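 Patient-derived tumour cells were co-cultured with HUVEC and mesenchymal stem cells as multicellular spheroids at 37 °C. They were treated with POLQ inhibitors (novobiocin, ART-558, RP6685) alone or combined with other agents. Top concentrations were at or near clinical Cmax (otherwise 10 microM; SN-38 at 1 microM), decreasing in half-log steps.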

[1] = second compound 0.0316 µM, first compound 0.0316 µM
[2] = second compound 0.0316 µM, first compound 0.1 µM
[3] = second compound 0.0316 µM, first compound 0.316 µM
[4] = second compound 0.0316 µM, first compound 1 µM
[5] = second compound 0.0316 µM, first compound 3.16 µM
[6] = second compound 0.0316 µM, first compound 10 µM
[7] = second compound 0.1 µM, first compound 0.0316 µM
[8] = second compound 0.1 µM, first compound 0.1 µM
[9] = second compound 0.1 µM, first compound 0.316 µM
[10] = second compound 0.1 µM, first compound 1 µM
[11] = second compound 0.1 µM, first compound 3.16 µM
[12] = second compound 0.1 µM, first compound 10 µM
[13] = second compound 0.316 µM, first compound 0.0316 µM
[14] = second compound 0.316 µM, first compound 0.1 µM
[15] = second compound 0.316 µM, first compound 0.316 µM
[16] = second compound 0.316 µM, first compound 1 µM
[17] = second compound 0.316 µM, first compound 3.16 µM
[18] = second compound 0.316 µM, first compound 10 µM
[19] = second compound 1 µM, first compound 0.0316 µM
[20] = second compound 1 µM, first compound 0.1 µM
[21] = second compound 1 µM, first compound 0.316 µM
[22] = second compound 1 µM, first compound 1 µM
[23] = second compound 1 µM, first compound 3.16 µM
[24] = second compound 1 µM, first compound 10 µM
[25] = second compound 3.16 µM, first compound 0.0316 µM
[26] = second compound 3.16 µM, first compound 0.1 µM
[27] = second compound 3.16 µM, first compound 0.316 µM
[28] = second compound 3.16 µM, first compound 1 µM
[29] = second compound 3.16 µM, first compound 3.16 µM
[30] = second compound 3.16 µM, first compound 10 µM
[31] = second compound 10 µM, first compound 0.0316 µM
[32] = second compound 10 µM, first compound 0.1 µM
[33] = second compound 10 µM, first compound 0.316 µM
[34] = second compound 10 µM, first compound 1 µM
[35] = second compound 10 µM, first compound 3.16 µM
[36] = second compound 10 µM, first compound 10 µM
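Also: spheroids exposed to agents for 7 days before viability reading.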
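For viability, T/C in this document: percent of DMSO vehicle control viability so 100% = vehicle and 0% = no viable signal.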

## C#Cc1c(F)ccc2cc(O)cc(-c3ncc4c(N5CC6CCC(C5)N6)nc(OCC56CCCN5CC(F)C6)nc4c3F)c12 (stereo unspecified) + COC1C(OC(N)=O)C(O)C(Oc2ccc3c(O)c(NC(=O)c4ccc(O)c(CC=C(C)C)c4)c(=O)oc3c2C)OC1(C)C
Second compound 0.0316 µM
  IC50: < 0.0316 µM
Second compound 0.1 µM
  IC50: < 0.0316 µM
Second compound 0.316 µM
  IC50: < 0.0316 µM
Second compound 1 µM
  IC50: < 0.0316 µM
Second compound 3.16 µM
  IC50: < 0.0316 µM
Second compound 10 µM
  IC50: < 0.0316 µM
[1]
  viability, T/C: 24.1%
[2]
  viability, T/C: 22.1%
[3]
  viability, T/C: 15.1%
[4]
  viability, T/C: 14.3%
[5]
  viability, T/C: 13.6%
[6]
  viability, T/C: 14.2%
[7]
  viability, T/C: 25.4%
[8]
  viability, T/C: 21.3%
[9]
  viability, T/C: 17%
[10]
  viability, T/C: 11.4%
[11]
  viability, T/C: 12.7%
[12]
  viability, T/C: 11.7%
[13]
  viability, T/C: 26.2%
[14]
  viability, T/C: 18.8%
[15]
  viability, T/C: 16.5%
[16]
  viability, T/C: 12.8%
[17]
  viability, T/C: 13.2%
[18]
  viability, T/C: 11.3%
[19]
  viability, T/C: 26.8%
[20]
  viability, T/C: 22.6%
[21]
  viability, T/C: 17.7%
[22]
  viability, T/C: 13.2%
[23]
  viability, T/C: 11.9%
[24]
  viability, T/C: 12.4%
[25]
  viability, T/C: 26.3%
[26]
  viability, T/C: 19.6%
[27]
  viability, T/C: 18.8%
[28]
  viability, T/C: 13.7%
[29]
  viability, T/C: 12.4%
[30]
  viability, T/C: 12.2%
[31]
  viability, T/C: 23.9%
[32]
  viability, T/C: 22.3%
[33]
  viability, T/C: 17.2%
[34]
  viability, T/C: 14.2%
[35]
  viability, T/C: 13.8%
[36]
  viability, T/C: 12.7%

## C=CC(=O)N1CCN(c2nc(=O)n(-c3c(C)ccnc3C(C)C)c3nc(-c4c(O)cccc4F)c(F)cc23)C(C)C1 (stereo unspecified) + COC1C(OC(N)=O)C(O)C(Oc2ccc3c(O)c(NC(=O)c4ccc(O)c(CC=C(C)C)c4)c(=O)oc3c2C)OC1(C)C
Second compound 0.0316 µM
  IC50: > 10 µM
Second compound 0.1 µM
  IC50: > 10 µM
Second compound 0.316 µM
  IC50: > 10 µM
Second compound 1 µM
  IC50: > 10 µM
Second compound 3.16 µM
  IC50: > 10 µM
Second compound 10 µM
  IC50: > 10 µM
[1]
  viability, T/C: 110%
[2]
  viability, T/C: 98%
[3]
  viability, T/C: 97.7%
[4]
  viability, T/C: 102%
[5]
  viability, T/C: 116%
[6]
  viability, T/C: 100%
[7]
  viability, T/C: 104%
[8]
  viability, T/C: 96.3%
[9]
  viability, T/C: 107%
[10]
  viability, T/C: 118%
[11]
  viability, T/C: 126%
[12]
  viability, T/C: 114%
[13]
  viability, T/C: 123%
[14]
  viability, T/C: 108%
[15]
  viability, T/C: 109%
[16]
  viability, T/C: 103%
[17]
  viability, T/C: 122%
[18]
  viability, T/C: 105%
[19]
  viability, T/C: 102%
[20]
  viability, T/C: 108%
[21]
  viability, T/C: 101%
[22]
  viability, T/C: 108%
[23]
  viability, T/C: 129%
[24]
  viability, T/C: 104%
[25]
  viability, T/C: 106%
[26]
  viability, T/C: 92.8%
[27]
  viability, T/C: 99.8%
[28]
  viability, T/C: 105%
[29]
  viability, T/C: 125%
[30]
  viability, T/C: 114%
[31]
  viability, T/C: 116%
[32]
  viability, T/C: 94.7%
[33]
  viability, T/C: 103%
[34]
  viability, T/C: 110%
[35]
  viability, T/C: 117%
[36]
  viability, T/C: 106%

## CC1COCCN1c1cc(C2(O)CC3CCC(C2)O3)c2cnn(-c3ccn[nH]3)c2n1 (stereo unspecified) + COC1C(OC(N)=O)C(O)C(Oc2ccc3c(O)c(NC(=O)c4ccc(O)c(CC=C(C)C)c4)c(=O)oc3c2C)OC1(C)C
Second compound 0.0316 µM
  IC50: 1.36 µM
Second compound 0.1 µM
  IC50: 0.811 µM
Second compound 0.316 µM
  IC50: 1.4 µM
Second compound 1 µM
  IC50: 1.17 µM
Second compound 3.16 µM
  IC50: 0.939 µM
Second compound 10 µM
  IC50: 1.44 µM
[1]
  viability, T/C: 94.4%
[2]
  viability, T/C: 80.1%
[3]
  viability, T/C: 67.3%
[4]
  viability, T/C: 51.5%
[5]
  viability, T/C: 43%
[6]
  viability, T/C: 34.2%
[7]
  viability, T/C: 109%
[8]
  viability, T/C: 79.4%
[9]
  viability, T/C: 60.9%
[10]
  viability, T/C: 46.8%
[11]
  viability, T/C: 41.4%
[12]
  viability, T/C: 34.2%
[13]
  viability, T/C: 104%
[14]
  viability, T/C: 84.8%
[15]
  viability, T/C: 61%
[16]
  viability, T/C: 52.1%
[17]
  viability, T/C: 49%
[18]
  viability, T/C: 34.5%
[19]
  viability, T/C: 96.6%
[20]
  viability, T/C: 80.7%
[21]
  viability, T/C: 65.3%
[22]
  viability, T/C: 50.2%
[23]
  viability, T/C: 43.6%
[24]
  viability, T/C: 40.1%
[25]
  viability, T/C: 101%
[26]
  viability, T/C: 83%
[27]
  viability, T/C: 65%
[28]
  viability, T/C: 45.8%
[29]
  viability, T/C: 45.4%
[30]
  viability, T/C: 34.9%
[31]
  viability, T/C: 108%
[32]
  viability, T/C: 83.4%
[33]
  viability, T/C: 62.5%
[34]
  viability, T/C: 55.3%
[35]
  viability, T/C: 45.6%
[36]
  viability, T/C: 36.3%
